Measurements reported in patent US5366726A (priority 1992, dated 1994).
“And” between values parts separate entries of the source, which are not always exact repeats. Equal entries are not always repeated.

Experiments:
[1] = Example 1: pentamidine concentrations in plasma and bronchoalveolar lavage fluid (HPLC); format: in vivo, human; conditions: for Plasma conc. on Day 1: peak during or end of inhalation, single patients
Protocol: For six inhalation patients (1, 4, 6, 7, 15, and 16) and five i.v. patients (2, 3, 5, 8, and 22), plasma samples were obtained at the completion of therapy and at 0.17, 0.5, 1, 1.5, 2, 2.5, 3, 4, 5, 6, 8, 10, 12, and 18 hours following initiation of therapy. For patients 9-14 and 17-21, trough and peak plasma samples were collected for the first three days, then weekly during therapy. Trough and peak samples were obtained on days 2, 3, 4, 5, 7, 11, and 13 for patient 2, days 2, 3, 4, 5, 7, and 12 for patient 3, days 2, 3, 4, 5, 13 and 18 for patient 5, and days 2, 3, 4, 5, and 11 for patient 8.

[2] = Example 2: aerosol particle size, Mercer cascade impactor; format: physicochemical
Text: A compressed oxygen (5-7 L/min at 345 kPa, 50 psi) powered nebulizer produces the aerosol and one-way valves provide for entrainment of room air in patients whose minute ventilation is high, act as a baffle to decrease particle size, and direct expired air to a filter which removes the remaining particles of drug thereby preventing environmental contamination.
Particles were sized with a 7 stage Mercer cascade impactor (Intox Products, Albuquerque, N. Mex.). The gas supply was 6 L/min, the sample stream was not dried, and the impactor flow rates were 0.5 L/min. […] Results from the average of three determinations at each location were expressed as mass median aerodynamic diameter±geometric standard deviation (MMAD±GSD). Raabe, J Aerosol Sci (1971) 2:289-303.

[3] = Example 2: pentamidine in BAL supernatant, BAL sediment and serum (HPLC); format: in vivo, human
Text: The patients were divided into two groups.

[4] = Example 3: serum pentamidine concentrations; format: in vivo; conditions: human, inhaled or intranasal, 300 mg, serum pentamidine concentration at end of therapy, 2 patients
Pneumocystis carinii [5] = format: in vivo, human
Text: The initial diagnosis of P. carinii pneumonia was based on finding the organism in induced sputum or bronchoalveolar lavage specimens.
Treatment was as described in Example 3.
Chest radiographs and arterial blood gas tensions were obtained as clinically indicated.

Pneumocystis carinii [6] = assay: Example 5: prevention of P. carinii pneumonia, 300 mg once per month; format: in vivo, human; conditions: single prior episode; vs 10 based on 132 historical controls, p<0.01
Text: (§1) Within 30 days of initiation of prophylaxis, ten patients were omitted due to treatment (9) or relapse (1). Of the 93 patients, 48 had had at least one previous episode of PCP. Two-thirds of the patients were taking AZT at the onset and throughout the duration of the post-exposure prophylaxis. The median and maximum duration of treatment at the time of analysis was 3.1 and 5.2 months.

Pneumocystis carinii [7] = assay: Example 8: randomized clinical trial, prevention of PCP; format: in vivo, human
[8] = design: species or system human; conditions: in vivo
Text: as §1

[9] = human, in vivo
Pneumocystis carinii [10] = conditions: standard therapy, intravenous pentamidine or TMP-SMX
Text: Adult patients having or suspected of having AIDS, and who were hospitalized for a fiberoptic bronchoscopy to evaluate diffuse infiltrates on chest radiographs, were studied. The patients were divided into two groups.

[11] = all strata, eligible, PCP within 60 days, 30 mg
[12] = all strata, eligible, confirmed PCP within 60 days, 30 mg
[13] = prior PCP strata, eligible, PCP within 60 days, 30 mg
[14] = prior PCP strata, eligible, PCP within 60 days, 150 mg
[15] = prior PCP strata, eligible, PCP within 60 days, 300 mg
[16] = prior PCP strata, eligible, confirmed PCP within 60 days, 30 mg
[17] = prior PCP strata, eligible, confirmed PCP within 60 days, 150 mg
[18] = prior PCP strata, eligible, confirmed PCP within 60 days, 300 mg

For `N=C(N)c1ccc(OCCCCCOc2ccc(C(=N)N)cc2)cc1` [pentamidine, p,p'-(pentamethylenedioxy)dibenzamidine], the Cmax ([1]; human, plasma, intravenous, 3 mg/Kg, read-out: mean peak plasma concentration during first infusion) was 260 ± 56 ng/mL, the “plasma samples with no detectable drug” value ([1]; inhaled) was “approximately two-thirds” and the “lavage fluid concentration, inhalation vs iv-treated patients” value ([1]; inhaled vs intravenous) was “approximately 10 fold”. The “Plasma conc. on Day 1” value ([1]; inhaled) was 0.0 ng/mL, the “Plasma conc. on Day 1” value ([1]; inhaled, 1440 min) was 3.1 ng/mL and 14.7 ng/mL and 16.9 ng/mL and 7.3 ng/mL and 32.8 ng/mL and 12.3 ng/mL and 2.5 ng/mL and 7.4 ng/mL and 7.8 ng/mL and 35.0 ng/mL and 30.9 ng/mL and 9.2 ng/mL and the “maximum plasma concentration during remainder of therapy, single patients” value ([1]; intravenous, patient 3 day 5 (lowest), patient 19 day 14 (highest)) was 164 ng/mL and 1360 ng/mL. The “mass of particles larger than 4 μm” value ([2]; at mouth-piece) was “less than 5%”, the “particle size MMAD” value ([2]; at mouth-piece (point B), ± GSD 1.88) was 1.42±1.88 μm and the “mass of particles larger than 4 μm” value ([2]; distal to nebulizer) was “greater than 20%”. For the same compound, the “BAL sediment concentration, aerosol vs intravenous group” value ([3]; 18-24 h) was 10-100 fold, the “mean BAL supernatant (aerosol) vs sediment (intravenous) concentration, factor” value ([3]; 18-24 h) was “more than 2” and the systemic absorption ([3]; after aerosol administration) was “Little or no systemic absorption”. The concentration at 504 h [4] was 22 ng/mL, the “hypoxia, fever, dyspnea” value (Pneumocystis carinii [5]; 10 patients) was “none of the patients were hypoxic or febrile, all had improvement in dyspnea” and the completion of therapy (Pneumocystis carinii [5]; 10 patients, 4 to 17 days) was “All patients successfully completed therapy”. The chest radiographs (Pneumocystis carinii [5]; current or subsequent) was “roentrographic improvement of infiltrates”, the “number of observed cases” value (Pneumocystis carinii [6]) was 3 cases and the “effectiveness vs 300 mg” value (Pneumocystis carinii [7]; 150 mg arm, compared with 30 mg arm, not statistically significant vs 300 mg) was “consistently less effective than 300 mg”. The “time to PCP occurrence, Kaplan-Meier” value (Pneumocystis carinii [7]; 150 mg vs 30 mg) was “superior to the 30 mg arm but less so than the 300 mg arm”, the “PCP episodes vs other arms” value (Pneumocystis carinii [7]; 300 mg arm) was “fewest PCP episodes” and the “time to PCP occurrence, Kaplan-Meier” value (Pneumocystis carinii [7]; 300 mg every 4 weeks vs 30 mg every 2 weeks) was “consistently superior”. The “hazard of PCP, Cox model” value (Pneumocystis carinii [7]; 300 mg group) was “significantly lower hazard of PCP”, the “PCP episodes documented during study” value (Pneumocystis carinii [7]; all arms) was “One hundred-one” and the “PCP events not histologically confirmed” value (Pneumocystis carinii [7]; all arms) was “Twenty-five”. For the same compound, the “completed the study without reaching a study endpoint” value (Pneumocystis carinii [7]; all arms) was 26%, the “deaths due to PCP” value (Pneumocystis carinii [7]; all arms) was “Nineteen” and the “p, log rank 30 mg vs. 300 mg” value (Pneumocystis carinii [7]; all strata, eligible, PCP within 60 days) was “.004”. For the same compound, the “No PCP” value (Pneumocystis carinii [7]; [11]) was 89, the PCP (Pneumocystis carinii [7]; [11]) was 28 and the PCP (Pneumocystis carinii [7]; all strata, eligible, PCP within 60 days, 150 mg) was 18. For the same compound, the PCP (Pneumocystis carinii [7]; all strata, eligible, PCP within 60 days, 300 mg) was 16, the “p, log rank 30 mg vs. 300 mg” value (Pneumocystis carinii [7]; all strata, eligible, confirmed PCP within 60 days) was “.0008” and the “No PCP” value (Pneumocystis carinii [7]; [12]) was 95. The PCP (Pneumocystis carinii [7]; [12]) was 22, the PCP (Pneumocystis carinii [7]; all strata, eligible, confirmed PCP within 60 days, 150 mg) was 16 and the PCP (Pneumocystis carinii [7]; all strata, eligible, confirmed PCP within 60 days, 300 mg) was 8. For the same compound, the “p, log rank 30 mg vs. 300 mg” value (Pneumocystis carinii [7]; all strata, intention to treat) was “.02”, the PCP (Pneumocystis carinii [7]; all strata, intention to treat, all PCP, 30 mg) was 41 and the PCP (Pneumocystis carinii [7]; all strata, intention to treat, all PCP, 150 mg) was 32. For the same compound, the PCP (Pneumocystis carinii [7]; all strata, intention to treat, all PCP, 300 mg) was 28, the “No PCP” value (Pneumocystis carinii [7]; all strata, intention to treat, 30 mg) was 94 and the “Cox relative hazard of 30 mg, on study drugs events” value (Pneumocystis carinii [7]; for 150 mg) was 1.7. For the same compound, the “Cox relative hazard of 30 mg, on study drugs events” value (Pneumocystis carinii [7]; for 300 mg) was 3.9, the “all cause mortality between three treatment arms” value (Pneumocystis carinii [7]; human, in vivo) was “did not significantly differ” and the “participants who developed PCP” value (Pneumocystis carinii [7]; initial CD4 counts greater than 200, no prior PCP) was 5.1%. For the same compound, the “participants who developed PCP” value (Pneumocystis carinii [7]; initial CD4 counts less than 200, no prior PCP) was 13%, the “p, log rank 30 mg vs. 300 mg” value (Pneumocystis carinii [7]; prior PCP strata, eligible, PCP within 60 days) was “.006” and the “No PCP” value (Pneumocystis carinii [7]; [13]) was 42. The PCP (Pneumocystis carinii [7]; [13]) was 25, the “No PCP” value (Pneumocystis carinii [7]; [14]) was 51 and the PCP (Pneumocystis carinii [7]; [14]) was 16. For the same compound, the “No PCP” value (Pneumocystis carinii [7]; [15]) was 60, the PCP (Pneumocystis carinii [7]; [15]) was 14 and the “p, log rank 30 mg vs. 300 mg” value (Pneumocystis carinii [7]; prior PCP strata, eligible, confirmed PCP within 60 days) was “.002”. The “No PCP” value (Pneumocystis carinii [7]; [16]) was 47, the PCP (Pneumocystis carinii [7]; [16]) was 20 and the “No PCP” value (Pneumocystis carinii [7]; [17]) was 53. The PCP (Pneumocystis carinii [7]; [17]) was 14, the “No PCP” value (Pneumocystis carinii [7]; [18]) was 66 and the PCP (Pneumocystis carinii [7]; [18]) was 8. For the same compound, the “p, log rank 30 mg vs. 300 mg” value (Pneumocystis carinii [7]; prior PCP strata, intention to treat) was “.02”, the PCP (Pneumocystis carinii [7]; prior PCP strata, intention to treat, all PCP, 30 mg) was 33 and the PCP (Pneumocystis carinii [7]; prior PCP strata, intention to treat, all PCP, 150 mg) was 24. For the same compound, the PCP (Pneumocystis carinii [7]; prior PCP strata, intention to treat, all PCP, 300 mg) was 21, the “No PCP” value (Pneumocystis carinii [7]; prior PCP strata, intention to treat, 30 mg) was 46 and the “No PCP” value (Pneumocystis carinii [7]; prior PCP strata, intention to treat, 150 mg) was 54. The “No PCP” value (Pneumocystis carinii [7]; prior PCP strata, intention to treat, 300 mg) was 59, the PCP episodes (Pneumocystis carinii [7]; prior PCP stratum, all arms) was “Seventy-eight” and the “median time to PCP relapse” value (Pneumocystis carinii [7]; prophylaxis started within 3 months of prior episode) was 240 days. The “hazard of PCP” value (Pneumocystis carinii [7]; therapy started within 3 months vs later) was “less than half the hazard of PCP”, the major pentamidine-related toxicity [8] was “No major pentamidine-related toxicity” and the “airway mucosal damage at repeat bronchoscopy” value [9] was “has not revealed evidence of airway mucosal damage”. The hypotension or dysglycemia [9] was “no episodes of hypotension or dysglycemia”, the “mild inhalation-associated cough, patients” value [9] was “Eight of thirteen” and the “mucosal damage at repeat bronchoscopy” value [9] was “evidence of mucosal damage has not been observed”. The “pentamidine-related reactions in some patients” value [9] was “cough, bronchospasm, or temperature elevation”, the “reversible bronchospasm, patients” value [9] was “five” and the “signs or symptoms of bronchitis or bronchospasm between inhalations” value [9] was “not present”. The “response of all patients infected with P. carinii” value (Pneumocystis carinii [10]) was “responded to standard therapy”.
